From PubChem BioAssay AID463206 (Broad Institute, 2010) come the findings set out here.

The structures appear in SMILES notation. Activity calls are given as the source filed them.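 The calls were made as follows: active = caspase luminescence falls with dose and the half-maximal concentration AC50 from the fitted curve is at or below a set limit; inconclusive = flat fit at 30 to 70% signal loss, or invalid fit; inactive = AC50 above the limit, or signal rises instead.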

For this experiment, the system named is INS-1E cytokine-induced caspase-3/7, Caspase-Glo luminescence, 48 h. Nature of the experiment: inhibitors of cytokine-induced caspase-3/7 activity, dose response, orthogonal assay for beta-cell apoptosis protection project, INS-1E rat cells, luminescence (AID 463206).
A word on the AC50: it is the midpoint of the concentration-response curve, whichever way the signal moves. As for `CCc1cc(CNC(=O)c2ccc3nc(Cc4ccc(OC)c(OC)c4)oc3c2)on1`, the AC50 was > 26 µM (inactive).

For `CC1(C)N=C(N)N=C(N)N1c1ccc(OCCCOc2ccccc2)c(Cl)c1`, the AC50 is > 26 µM (inactive).

`O=C(c1cc(COc2cccc3cnccc23)on1)N1CCCC(CCCO)C1` (configuration not stated): the AC50 was > 26 µM (inactive).

On to `COc1ccc(CNCCc2c(C)[nH]c3ccc(OC(F)(F)F)cc23)c(OC)c1`, for which the AC50 was > 26 µM (inactive).

`Cc1sc2ncnc(N/N=C/c3ccccc3O)c2c1C`: the AC50 was > 26 µM (inactive).

As to `COc1ccc(-c2cc3ccccc3oc2=O)cc1NC(=O)c1ccc([N+](=O)[O-])o1`, the AC50 was > 26 µM (inactive).

Turning to `C/C(=N\NC(=O)c1cc(-c2cccs2)nc2ccccc12)c1ccccn1`, the AC50 is > 26 µM (inactive).

As to `CC1=NN(c2ccc(C)c(C)c2)C(=O)/C1=C\C=C\c1ccc([N+](=O)[O-])o1`, the AC50 was > 26 µM (inactive).

As to `O=C(N/N=C/c1cc(Br)c(Br)s1)c1ccncc1`, the AC50 was > 26 µM (inactive).

Consider `O=[N+]([O-])c1ccc(NC(=S)NCCc2ccc(F)cc2)cc1`, for which the AC50 was > 26 µM (inactive).

For `CCCOc1ccc(/C=N/NC(=S)Nc2ccccc2[N+](=O)[O-])c(O)c1`, the AC50 was > 26 µM (inactive).

As to `CC(C)N=c1cc2n(-c3ccc(Cl)cc3)c3ccccc3nc-2cc1Nc1ccc(Cl)cc1`, the AC50 was > 26 µM (inactive).

For `CCN(CC)CCNc1ncnc2c1sc1nc(N3CCOCC3)c3c(c12)CC(C)(C)SC3`, the AC50 was 23.6 µM.

As for `O=C(CNc1ccc(F)cc1)N/N=C/c1c(O)ccc2ccccc12`, the AC50 was > 26 µM (inactive).

With `Cc1ccc(NS(=O)(=O)c2ccc(Cl)c(NC(=S)NC(=O)C3CCCCC3)c2)cc1Cl`, the AC50 was > 26 µM (inactive).

Consider `Cc1cc(N)c2cc(NC(=O)/C=C/c3ccccc3Cl)ccc2n1`, for which the AC50 was 23 µM.

For `COc1ccc(-c2c([C@H]3[C@H]4C=CC[C@@H](C)[C@@H]4C(=O)N3Cc3ccccc3)ccc3ccccc23)cc1`, the AC50 is > 26 µM (inactive).

As to `Cn1cc(CNCc2ccc(OC(F)(F)F)cc2)c(-c2ccc3c(c2)OCCO3)n1`, the AC50 is > 26 µM (inactive).

On to `CC1=C(C)/C(=N\OS(=O)(=O)c2ccc(C)cc2)C=CC1=O`, for which the AC50 is > 26 µM (inactive).

With `COc1cccc(C(=O)Oc2c(Br)cc(Br)cc2/C=N/NC(=O)c2cc(C)[nH]n2)c1`, the AC50 is > 26 µM (inactive).

For the compound `COc1ccc(-n2cc(-c3ccc(OC(F)F)cc3)[n+]3c2CCCCC3)cc1`, the AC50 is > 26 µM (inactive).

As for `CCCCCCCCNC(C)C(O)c1ccc(SC(C)C)cc1` (configuration not stated), the AC50 is > 26 µM (inactive).

In the case of `O=[N+]([O-])c1cccc(/C=N/n2cnnc2)c1`, the AC50 was > 26 µM (inactive).

With `O=C(CCCN1C(=O)/C(=C/c2ccccc2)SC1=S)NCCCn1ccnc1`, the AC50 was > 26 µM (inactive).

Take `COc1ccc2nc(C)cc(SCC(=O)N/N=C/c3ccc(O)cc3O)c2c1`: the AC50 is > 26 µM (inactive).

As to `N#CC(c1ccc(Cl)cc1)c1ccc2c(C(F)(F)F)cc(C(F)(F)F)nc2n1` (configuration not stated), the AC50 was > 26 µM (inactive).

Regarding `CCCCCCCCCCCCCCCC[N+](C)(C)CCN(Cc1ccc(OC)cc1)c1ncccn1`, the AC50 was > 26 µM (inactive).

With `COC(=O)C1=C(C)N(Cc2ccccc2)C(=NCc2ccccc2)N[C@H]1c1cccc(C(F)(F)F)c1`, the AC50 is > 26 µM (inactive).

As to `CC(C)(C)c1cc(C(=O)N/N=C/c2ccccc2O)n(-c2ccccc2)n1`, the AC50 is > 26 µM (inactive).

In the case of `COc1ccc(CNC(=O)c2c(C)oc3c2C(=O)c2ccccc2C3=O)cc1`, the AC50 was > 26 µM (inactive).

Turning to `CCN(c1ccccc1)S(=O)(=O)c1ccc(NC(=O)c2nc(S(C)(=O)=O)ncc2Cl)cc1`, the AC50 is > 26 µM (inactive).

In the case of `C=C1C(O)[C@@H]2O[C@]3(CC[C@H](/C=C/C(C)[C@@H]4CC(C)=CC5(O[C@H](C[C@@](C)(O)C(=O)O)CCC5O)O4)O3)CC[C@H]2O[C@@H]1C(O)CC(C)[C@H]1OC2(CCCCO2)CCC1C` (some centres not stated), the AC50 was > 26 µM (inactive).

As for `Fc1cc(F)c2nc(Nc3nc4c(F)cccc4s3)sc2c1`, the AC50 is > 26 µM (inactive).

As for `CCCCn1c(/C=N/Nc2nc3ccccc3[nH]2)nc2ccccc21`, the AC50 was > 26 µM (inactive).

As to `CC(=O)Nc1sc2c(c1-c1nc3ccccc3s1)CN(C(C)C)CC2`, the AC50 is > 26 µM (inactive).

Consider `C[n+]1c2n(c3ccccc31)N=C(c1ccc(Cl)cc1)CS2`, for which the AC50 is > 26 µM (inactive).

As to `CCc1ccc(C2=NNC(=Nc3cccc(S(=O)(=O)N(C)C)c3)SC2)cc1`, the AC50 was > 26 µM (inactive).

For `O=C(CCSc1nc2ccccc2s1)N/N=C/c1c(O)ccc2ccccc12`, the AC50 was > 26 µM (inactive).

As for `O=C(N/N=C/c1sc2ccccc2c1O)c1ccccc1`, the AC50 is > 26 µM (inactive).

On to `CN(C)C1CCN(Cc2cc(COCc3ccccc3)c3cccnc3c2O)C1` (configuration not stated), for which the AC50 was > 26 µM (inactive).

With `C/C(=N\NC(=O)c1cc(-c2cccnc2)nc2ccccc12)c1ccc(O)cc1O`, the AC50 is > 26 µM (inactive).

As to `Cc1ccc(O)c(/C=N/NC(=O)c2[nH]ncc2Br)c1`, the AC50 was > 26 µM (inactive).

As for `CCCCCCn1ccc(=N)cc1`, the AC50 is > 26 µM (inactive).

`CCN(c1ccccc1)S(=O)(=O)c1ccc(C(=O)NC2CCN(Cc3ccccc3)CC2)cc1`: the AC50 is > 26 µM (inactive).

Take `CC[N+]1=C(C)C(C)(C)c2cc(C)ccc21`: the AC50 is > 26 µM (inactive).

With `C=CCCc1ccc(C#N)c(SCc2c(C(=O)OCC)c3cc(OC(C)=O)c(Br)cc3n2C)n1`, the AC50 is > 26 µM (inactive).

In the case of `COc1cccc(CNCCc2c[nH]c3ccccc23)c1OCc1ccccc1F`, the AC50 was > 26 µM (inactive).

Turning to `COc1ccc(Cl)c(Cn2c(NCc3ccco3)nc3c2c(=O)n(C)c(=O)n3C)c1`, the AC50 is > 26 µM (inactive).

For `CCOc1ccc(C(Nc2cccnc2)c2cc(Cl)c3cccnc3c2O)cc1` (configuration not stated), the AC50 was > 26 µM (inactive).

Take `Cc1cc(C)c2nc(NNC(=O)c3ccc(S(=O)(=O)N4CC(C)CC(C)C4)cc3)sc2c1` (configuration not stated): the AC50 was > 26 µM (inactive).

`COC(=O)c1ccc(NC(=O)c2cccnc2)cc1`: the AC50 was > 26 µM (inactive).

Regarding `CCOC(=O)C1=C(CCc2ccccc2)NC(=O)NC1c1ccc2ccccc2c1` (configuration not stated), the AC50 was > 26 µM (inactive).

Regarding `CC(C)NC(=S)N/N=C/c1cc(Br)ccc1O`, the AC50 was > 26 µM (inactive).

`Cc1cccc(/C=C/C(=O)c2ccc([N+](=O)[O-])o2)c1`: the AC50 is > 26 µM (inactive).

Consider `CCCCC1CCC(C(=O)N(CC(C)C)c2c(N)n(Cc3ccccc3)c(=O)[nH]c2=O)CC1` (configuration not stated), for which the AC50 was > 26 µM (inactive).

In the case of `Cc1cnc(NC(=O)CN2CCN(c3ccccn3)CC2)s1`, the AC50 is > 26 µM (inactive).

On to `O=C(C(Sc1ccccc1)c1ccccc1)N1CCN(c2ccccc2F)CC1` (configuration not stated), for which the AC50 is > 26 µM (inactive).

Regarding `O=C(COC(=O)c1cn(-c2ccccc2)nc1-c1ccccc1)c1cccc([N+](=O)[O-])c1`, the AC50 was > 26 µM (inactive).

Turning to `C[C@H]1CCC/C=C/[C@@H]2C[C@H](O)C[C@H]2[C@H](O)/C=C/C(=O)O1`, the AC50 was > 26 µM (inactive).

Turning to `O=C(/C=C/c1ccc(F)cc1)NC(=S)NNC(=O)c1cnccn1`, the AC50 is > 26 µM (inactive).

As for `Cc1ccc2c(c1)nnn2C1CCN(S(=O)(=O)c2ccc(C(=O)N3C(C)CCCC3C)cc2)CC1` (configuration not stated), the AC50 was > 26 µM (inactive).

Turning to `CCCCCCCCCCOC(=O)Cn1c(COc2cccc(C)c2)[n+](C)c2ccccc21`, the AC50 is > 26 µM (inactive).

Consider `O=C(Nc1ccc(F)cc1)c1cccnc1`, for which the AC50 was > 26 µM (inactive).

Take `O=C1N/C(=N/N=C/c2ccccc2O)SC1Cc1ccc(F)cc1` (configuration not stated): the AC50 was > 26 µM (inactive).

As to `C/C(=N\NC(=O)c1ccoc1C)c1ccccc1O`, the AC50 was > 26 µM (inactive).

`Nc1c(Cl)ncnc1N/N=C/c1ccccn1`: the AC50 is > 26 µM (inactive).

As to `CCN(CC)C(=O)C1CCCN(C(=S)Nc2cccc3ccccc23)C1` (configuration not stated), the AC50 was > 26 µM (inactive).

As to `Cc1ccc(S(=O)(=O)/N=C2\C(=O)c3ccccc3C([O-])=C2n2cc[n+](CCC(C)C)c2)cc1`, the AC50 was > 26 µM (inactive).

Turning to `CCS(=O)(=O)c1ncc(Cl)c(C(=O)Nc2ccc(S(=O)(=O)N3CCCC(C)C3)cc2)n1` (configuration not stated), the AC50 was > 26 µM (inactive).

For the compound `OCc1ccc(O)c2ncccc12`, the AC50 is > 26 µM (inactive).

On to `CC(C)(C)c1cc[n+](C2=C([O-])c3ccccc3C(=O)/C2=N\S(=O)(=O)c2ccccc2)cc1`, for which the AC50 is > 26 µM (inactive).

For the compound `COc1ccc(C(NC(=O)C(C)C)c2ccc3cccnc3c2O)cc1` (configuration not stated), the AC50 is > 26 µM (inactive).

As for `COc1ccc(Cc2nnc(N/N=C/c3ccccc3O)[nH]c2=O)cc1OC`, the AC50 is > 26 µM (inactive).

On to `C#CCOCCOCCOCCNc1nc(N2CCN(C(=O)CCCCCCCCCCNC(=O)[C@H](CCCCN)n3cc(C[C@@H](C)CC)nn3)CC2)nc(N2CCN(C(=O)CCCCCCCCCCNC(=O)[C@@H]([C@H](C)O)n3cc(C)nn3)CC2)n1`, for which the AC50 was > 26 µM (inactive).

For the compound `Oc1ccc2ccccc2c1N=Nc1nccs1`, the AC50 is > 26 µM (inactive).

`Cc1ccc(C)c(-c2csc(NC(=O)C3=COCCO3)n2)c1`: the AC50 is > 26 µM (inactive).

Take `COc1cc2ccccc2cc1C(=O)Nc1sc2c(c1C(N)=O)CCN(C(C)C)C2`: the AC50 was 9.32 µM.

Regarding `COc1ccc(-c2ccnc(SCC(=O)N3CCN(c4ccccc4)CC3)n2)cc1`, the AC50 was > 26 µM (inactive).

For the compound `O=C(NCc1cccnc1)/C(=C\c1ccc(-c2ccc(Cl)c(Cl)c2)o1)S(=O)(=O)c1ccccc1`, the AC50 was > 26 µM (inactive).

Consider `Oc1[nH]c(N=C2N=c3ccccc3=N2)c2ccccc12`, for which the AC50 was > 26 µM (inactive).

With `CC(=O)c1ccccc1OCCOCCOc1ccccc1C(C)=O`, the AC50 was > 26 µM (inactive).

Turning to `c1ccc(CSc2ccc(-c3ccccn3)nn2)cc1`, the AC50 is > 26 µM (inactive).
